Measured values taken from patent publication US10202408B2, “Prodrugs and methods of use thereof” (Health Innovation Ventures B.V., priority 2012, dated 2019).

Experiments:
[1] = tested on: HCT116 cells engineered to over-express human aldo-ketoreductase 1C3 (AKR1C3); test: Low cell density IC50 (SRB) assay, HCT116 wild type versus AKR1C3 over-expressing cells; type: cell-based; details: 4 h exposure
Experimental: (§1) Compounds were subjected to testing, including low-cell density cytotoxicity assay. Cells (500 cells/well) were seeded in 96-well plates and exposed to prodrug for 4 h, washed, then left to grow for a further 5 days. The SRB assay was employed to determine IC50 values (concentration of prodrug required to inhibit proliferation by 50%). Parental HCT116 cells (HCT116 is a cell line derived from human colon cancer) and cells expressing the example nitroreductase gene nfsA from Escherichia coli were evaluated head-to-head. Parental H1299 cells (H1299 is a cell line derived from lung cancer) and cells expressing the example nitroreductase gene nfsA from Escherichia coli were evaluated head-to-head. Parental HCT116 cells and cells expressing human AKR1C3 were evaluated head-to-head. Parental H1299 cells and cells expressing human AKR1C3 were evaluated head-to-head. In a variation of these assays test compounds were assessed for their ability to give hypoxia-selective cell killing. Here wild type HCT116, H460 (H460 is a cell line derived from lung cancer), H1299 and SiHa cells (SiHa is a cell line derived from cervical cancer) were used in addition to HCT116 cells engineered to over express cytochrome P450 reductase (HCT116 POR), a human one-electron nitroreductase. Low-cell density cytotoxicity assays were performed as above under oxic conditions and compared to experiments where cells were shown 4 h of anoxia during the prodrug exposure period, before being washed free of prodrug and then left to grow for a further 5 days under oxic conditions, as above.

[2] = tested on: H1299 cells engineered to over-express human aldo-ketoreductase 1C3 (AKR1C3); test: Low cell density IC50 (SRB) assay, H1299 wild type versus AKR1C3 over-expressing cells; type: cell-based; details: 4 h exposure
Experimental: as §1

[3] = tested on: HCT116 MCLs over-expressing AKR1C3; test: Multicellular layer (MCL) clonogenic assay, HCT116 wild type versus AKR1C3 over-expressing MCLs; type: cell-based, human
Experimental: (§2) In parallel, a three dimensional high-cell density multi-cellular layer (MCL) clonogenic assay was performed. 1×10^6 cells of either 100% HCT-116^WT or containing 97% WT with a minor 3% HCT-116^NTR cell population were seeded into a collagen-coated Teflon microporous membrane and left to grow for 3 days. MCLs were then exposed to prodrug for 5 h. After treatment, MCLs were enzyme dissociated, diluted in fresh medium and plated to determine clonogenic survival. To discriminate clonogenic activator (NTR+) from target (NTR−) colonies, cells were plated in non-selective medium (total cells) and medium containing 1 μM puromycin (activator cells). Colonies were grown for 10 days before staining. Colonies containing >50 cells were counted. A variation of this assay was also used to assess for evidence of AKR1C3-dependent cytotoxicity. Here either 100% HCT-116W^T or 100% HCT-116^AKR1C3 cells were seeded to provide MCLs that were then exposed to prodrug.

[4] = tested on: HCT116 cells engineered to over-express E coli NfsA; test: Low cell density IC50 (SRB) assay, HCT116 wild type versus E coli NfsA over-expressing cells; type: cell-based, human
Experimental: as §1

[5] = tested on: H1299 cells engineered to over-express E coli NfsA; test: Low cell density IC50 (SRB) assay, H1299 wild type versus E coli NfsA over-expressing cells; type: cell-based, human
Experimental: as §1

[6] = tested on: HCT116 MCLs with 3% E coli NfsA-expressing cells; test: MCL clonogenic bystander assay, HCT116 MCLs seeded with 3% E coli NfsA-expressing cells; type: cell-based, human; details: 97% wild type HCT116, 3% E coli NfsA-expressing cells
Experimental: as §2

[7] = tested on: bacterial nitroreductases from the NfsA and NfsB families; test: GFP SOS assay with nitroreductase over-expression library; type: cell-based, E. coli strain SOS-R4; details: 55 candidate nitroreductase library, 6 h challenge
Excerpt: The method employed the over-expression of a candidate nitroreductase gene from plasmid pUCX in an SOS reporter strain, as first described in Prosser et al., 2010, Biochem Pharmacol 79, 678-687. In order to enhance the sensitivity of the SOS reporter system, an sfiA::GFP reporter construct was integrated into a CDF-based plasmid (which contains a compatible origin of replication with pUCX) to give the pANODuet reporter plasmid for GFP screening. In addition, nfsA, nfsB, azoR, and nemA genes were deleted to minimise background metabolism, and the tolC gene deleted to minimise efflux of test compounds; this strain was designated SOS-R3. Further improvements were obtained by deleting the mdaB, ycaK, and yieF genes to minimise background metabolism, and by introducing transcriptional terminators to the pANODUET reporter plasmid. This final reporter strain was designated SOS-R4.
Stored glycerols of the 55-membered nitroreductase library in SOS-R4 were thawed and used to inoculate overnight cultures (Lysogeny Broth (LB) amended with 100 μg ml^−1 Ampicillin, 50 μg ml^−1 Spectinomycin, 0.4% glucose) that were incubated at 30° C., 200 rpm for 16 h. The next morning the GFP-SOS assay was commenced by inoculation of 195 μl fresh assay media (LB+100 μg ml^−1 Ampicillin, 50 μg ml^−1 Spectinomycin, 0.2% glucose, 50 μM IPTG) with 15 μl of overnight culture in individual wells of a 96-well plate. Plates were incubated at 30° C., 200 rpm for 2.5 h (pre-challenge period), following which cultures were diluted 1:2 by splitting 50:50 into fresh assay media (+DMSO to 0.5% final concentration) and fresh challenge media (assay media+drug to desired concentration, DMSO to 0.5% final concentration) to final volumes of 80 μl apiece in duplicate on a 384-well plate. Plates were incubated at 30° C., 200 rpm for 6 h (challenge period). GFP expression was determined at excitation 488 nm/emission 509 nm. Turbidity was determined by OD600 and fluorescence data from any replicates not found to be within 15% of the median culture turbidity were discarded.

[8] = tested on: 15% E coli NfsA-expressing H1299 xenografts; test: Tumour growth delay, 15% E coli NfsA-expressing H1299 xenografts; type: in vivo, NIH-III mice; details: for E coli NfsA mediated anti-tumour efficacy (mean tumour volume): 500 umol/kg twice daily (BID), total 1000 umol/kg; for tumour growth delay: mixed HCT116 and H1299 xenografts, 15% E coli NfsA cells, single (or BID) intraperitoneal dose
Experimental: Animals weighed 18-25 g at the time of tumour inoculation. Tumours were grown subcutaneously on the right flank of mice by inoculating cells grown in tissue culture (1×10^7 cells in 100 uL serum free α-MEM). Tumour sizes were monitored three times weekly using electronic callipers and treatments were initiated once tumour diameter reached ≥7 mm.
Tumour bearing mice were randomised into the appropriate treatment groups and tumour size and body weight recorded. Test compounds were formulated on the day of the experiment and kept in foil-wrapped tubes out of direct fluorescent light. If recruitment of animals occurred over multiple days, the drug stocks were aliquoted into tubes and frozen once at […] until required. Mice were treated with a single (or BID) dose of prodrug by intraperitoneal injection and thereafter tumour size and body weight was monitored every second day. Tumour volume was calculated as π (l×w×w)/6, where l is the major axis and w is the perpendicular minor axis. Animals were culled when they had reached the appropriate survival endpoint or when body weight loss exceeded 20% of the pre-treatment value.

[9] = tested on: bacterial nitroreductases from the NfsA and NfsB families; test: GFP SOS assay with nitroreductase over-expression library; type: cell-based, E. coli strain SOS-R4; details: single and poly mutated variants of NfsA_Ec, single-mutated variant of NfsA_Bs
[10] = tested on: HCT116, H460, H1299 and SiHa wild type cancer cell lines; test: Oxic versus anoxic low cell density IC50 assay, wild type cancer cell lines; type: cell-based, human; details: 4 h anoxia during prodrug exposure versus oxic
Experimental: as §1

[11] = tested on: wild type SiHa tumour xenografts; test: Excision assay with and without radiation, wild type SiHa tumour xenografts; type: in vivo, NIH-III nude mice
Experimental: Tumours were grown subcutaneously in the flank of NIH-III mice by inoculating cells grown in tissue culture. Tumours were monitored using electronic calipers. When tumours reached treatment size, mice were randomized to treatment groups (five to seven per group). Compounds were given as single (or BID) intraperitoneal doses alone or 5 min after whole body irradiation (^60Co source). Eighteen hours after treatment, tumours were excised, weighed, minced, dissociated enzymatically, and plated to determine clonogenicity. Clonogens/gram of tissue were calculated relative to controls and effects of treatment were tested for significance (ANOVA with Dunnett's).

Compound	AKR1C3-mediated cytotoxicity (IC50 wild type versus AKR1C3) [1]	AKR1C3-mediated cytotoxicity (IC50 wild type versus AKR1C3) [2]	AKR1C3-dependent clonogenic cell kill in MCLs [3]	E coli NfsA-mediated cytotoxicity (IC50 wild type versus NfsA) [4]	E coli NfsA-mediated cytotoxicity (IC50 wild type versus NfsA) [5]	bystander cell killing in MCLs [6]	metabolism by bacterial nitroreductases (SOS response) [7]	E coli NfsA mediated anti-tumour efficacy (mean tumour volume) [8]	tumour growth delay [8]	activity with mutated nitroreductase variants [9]	hypoxia-dependent cytotoxicity [10]	cell killing in combination with radiation versus radiation alone ([11]; HCT116 POR and wild type SiHa xenografts, 10 or 15Gy, single (or BID) intraperitoneal dose)	hypoxic cell kill in vivo (log cell kill) ([11]; with or without 10Gy radiation, 22 at 422, 300 and 11 at 1330, 23 at 1000 umol/kg)
CCN1CCN(C(=O)c2cc(N(CCBr)CCBr)c(S(=O)(=O)CC)cc2[N+](=O)[O-])CC1 [compound 26, (5-(bis(2-bromoethyl)amino)-4-(ethylsulfonyl)-2-nitrophenyl)(4-ethylpiperazin-1-yl)methanone]	less susceptible to AKR1C3-mediated cytotoxicity than PR-104A	less susceptible to AKR1C3-mediated cytotoxicity than PR-104A	do not cause AKR1C3-dependant cytotoxicity	produce E coli NfsA-mediated cytotoxicity	produce E coli NfsA-mediated cytotoxicity	display evidence of metabolism by the 3% E coli NfsA-expressing cells with bystander cell killing of the 97% non-expressing neighbour cells	substrates for multiple wild type and mutant bacterial nitroreductases from the NfsA and NfsB families	display significant E coli NfsA mediated anti-tumour efficacy	profound tumour growth delay	demonstrated			
CC(C)N1CCN(C(=O)c2cc(N(CCBr)CCBr)c(S(C)(=O)=O)cc2[N+](=O)[O-])CC1 [compound 24, (5-(bis(2-bromoethyl)amino)-4-(methylsulfonyl)-2-nitrophenyl)(4-isopropylpiperazin-1-yl)methanone]	less susceptible to AKR1C3-mediated cytotoxicity than PR-104A	less susceptible to AKR1C3-mediated cytotoxicity than PR-104A	do not cause AKR1C3-dependant cytotoxicity	produce E coli NfsA-mediated cytotoxicity	produce E coli NfsA-mediated cytotoxicity	display evidence of metabolism by the 3% E coli NfsA-expressing cells with bystander cell killing of the 97% non-expressing neighbour cells	substrates for multiple wild type and mutant bacterial nitroreductases from the NfsA and NfsB families			demonstrated			
CS(=O)(=O)c1cc([N+](=O)[O-])c(C(=O)NCCO)cc1N(CCBr)CCBr [compound 301, 5-(bis(2-bromoethyl)amino)-N-(2-hydroxyethyl)-4-(methylsulfonyl)-2-nitrobenzamide]											increased cytotoxicity in cells under hypoxia		
CCN1CCN(C(=O)c2cc(N(CCBr)CCBr)c(S(C)(=O)=O)cc2[N+](=O)[O-])CC1 [compound 23, (5-(bis(2-bromoethyl)amino)-4-(methylsulfonyl)-2-nitrophenyl)(4-ethylpiperazin-1-yl)methanone]	less susceptible to AKR1C3-mediated cytotoxicity than PR-104A	less susceptible to AKR1C3-mediated cytotoxicity than PR-104A	do not cause AKR1C3-dependant cytotoxicity	produce E coli NfsA-mediated cytotoxicity	produce E coli NfsA-mediated cytotoxicity	display evidence of metabolism by the 3% E coli NfsA-expressing cells with bystander cell killing of the 97% non-expressing neighbour cells	substrates for multiple wild type and mutant bacterial nitroreductases from the NfsA and NfsB families	display significant E coli NfsA mediated anti-tumour efficacy	profound tumour growth delay	demonstrated		increased cell killing above what could be achieved with radiation alone	significant hypoxic cell kill in vivo
CCS(=O)(=O)c1cc([N+](=O)[O-])c(C(=O)N(C)CCO)cc1N(CCBr)CCBr [compound 18, 5-(bis(2-bromoethyl)amino)-4-(ethylsulfonyl)-N-(2-hydroxyethyl)-N-methyl-2-nitrobenzamide]	less susceptible to AKR1C3-mediated cytotoxicity than PR-104A		do not cause AKR1C3-dependant cytotoxicity	produce E coli NfsA-mediated cytotoxicity	produce E coli NfsA-mediated cytotoxicity	display evidence of metabolism by the 3% E coli NfsA-expressing cells with bystander cell killing of the 97% non-expressing neighbour cells	substrates for multiple wild type and mutant bacterial nitroreductases from the NfsA and NfsB families			demonstrated	increased cytotoxicity in cells under hypoxia		
